Experimental data published in US7157430B2, “(Substituted)acyl dipeptidyl inhibitors of the ICE/CED-3 family of cysteine proteases” (Idun Pharmaceuticals, Inc., priority 1998, dated 2007).
Like-named read-outs stand apart in the source and are kept apart here. Where a SMILES comes first, the peptide text is derived from it. The star is where a group is joined. Hydrocinnamoyl = O=C(CCc1ccccc1)*; Cbz = O=C(OCc1ccccc1)*; CH2F = FC*

Experiments:
Format in all cases: biochemical
[1] = target: T1, MCH-2 (Homo sapiens, UniProt P55212); assay: Fluorescence enzyme assay, IC50 determination, Mch2
T1 sequence (P55212 24-179 limits assumed): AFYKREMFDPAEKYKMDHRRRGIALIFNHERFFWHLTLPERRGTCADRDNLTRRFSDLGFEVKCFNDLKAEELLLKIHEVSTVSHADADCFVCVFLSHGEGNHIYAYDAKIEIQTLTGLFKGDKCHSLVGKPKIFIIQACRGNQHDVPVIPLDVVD
T1 sequence (P55212 194-293 limits assumed): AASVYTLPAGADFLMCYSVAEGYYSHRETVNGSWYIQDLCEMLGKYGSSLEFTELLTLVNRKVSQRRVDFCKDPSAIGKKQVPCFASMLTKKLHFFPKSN
Experimental: (§1) Fluorescence enzyme assays detecting the activity of the compounds of Formula 1 utilizing the recombinant ICE and CPP32 enzymes are performed essentially according to Thornberry et al. (Nature, 356:768:774 (1992)) and Nicholson et al. (Nature, 376:37–43 (1995)) respectively, (herein incorporated by reference) in 96 well microtiter plates. The substrate is Acetyl-Tyr-Val-Ala-Asp-amino-4-methylcoumarin (AMC) for the ICE assay and Acetyl-Asp-Glu-Val-Asp-amino-4-methylcoumarin for the CPP32, Mch2, Mch3 and Mch5 assays. Enzyme reactions are run in ICE buffer (25 mM HEPES, 1 mM EDTA, 0.1% CHAPS, 10% sucrose, pH 7.5) containing 2 mM DTT at room temperature in duplicate.
(§2) The enzyme and the compound of Formula I to be assayed are allowed to preincubate in the microtitre plate wells for 30 minutes at room temperature prior to the addition of substrate to initiate the reaction. Fluorescent AMC product formation is monitored for one hour at room temperature by measuring the fluorescence emission at 460 nm using an excitation wavelength of 360 nm. The fluorescence change in duplicate (control) wells are averaged and the mean values are plotted as a function of inhibitor concentration to determine the inhibitor concentration producing 50% inhibition (IC50). The results of this assay are set forth below in Table 1 and in Table 3 (for Table 3, see Examples 11 through 52).
(§3) The reference compound for this assay was Cbz-ValAlaAsp-H and the values are denoted in Table 1 as “Reference”.

[2] = target: T2, CPP32 (Homo sapiens, UniProt P42574); assay: Fluorescence enzyme assay, IC50 determination, CPP32
T2 sequence (P42574 29-175 limits assumed): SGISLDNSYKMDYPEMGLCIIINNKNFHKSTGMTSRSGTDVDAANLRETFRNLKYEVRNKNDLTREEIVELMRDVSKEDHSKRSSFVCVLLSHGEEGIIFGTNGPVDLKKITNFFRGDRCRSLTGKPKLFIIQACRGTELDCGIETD
T2 sequence (P42574 176-277 limits assumed): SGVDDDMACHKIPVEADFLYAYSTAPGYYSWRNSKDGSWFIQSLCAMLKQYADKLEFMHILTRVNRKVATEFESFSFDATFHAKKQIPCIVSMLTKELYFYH
Experimental: as §1, §2, §3

[3] = target: T3, MCH-5 (Homo sapiens, UniProt Q14790); assay: Fluorescence enzyme assay, IC50 determination, Mch5
Experimental: as §1, §2, §3

[4] = target: T4, MCH-3 (Homo sapiens, UniProt P55210); assay: Fluorescence enzyme assay, IC50 determination, Mch3
T4 sequence (P55210 24-198 limits assumed): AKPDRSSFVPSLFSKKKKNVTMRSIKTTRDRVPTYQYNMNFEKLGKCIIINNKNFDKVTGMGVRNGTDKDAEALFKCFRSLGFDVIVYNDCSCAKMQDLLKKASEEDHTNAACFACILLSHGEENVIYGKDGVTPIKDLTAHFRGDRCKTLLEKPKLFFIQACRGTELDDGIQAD
T4 sequence (P55210 207-303 limits assumed): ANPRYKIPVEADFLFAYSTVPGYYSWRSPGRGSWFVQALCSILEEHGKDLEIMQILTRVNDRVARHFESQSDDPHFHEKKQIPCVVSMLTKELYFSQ
Experimental: as §1, §2, §3

[5] = target: T5, mICE (Mus musculus, UniProt P29452); assay: Fluorescence enzyme assay, IC50 determination, ICE
T5 sequence (P29452 123-296 limits assumed): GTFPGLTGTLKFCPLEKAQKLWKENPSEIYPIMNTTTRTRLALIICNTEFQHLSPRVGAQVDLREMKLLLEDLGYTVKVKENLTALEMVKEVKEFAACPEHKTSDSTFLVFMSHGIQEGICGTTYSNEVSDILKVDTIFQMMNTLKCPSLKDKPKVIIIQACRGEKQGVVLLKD
T5 sequence (P29452 315-402 limits assumed): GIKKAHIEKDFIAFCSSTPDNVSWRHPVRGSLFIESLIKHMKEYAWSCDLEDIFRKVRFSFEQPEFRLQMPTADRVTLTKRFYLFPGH
Experimental: as §1, §2, §3

[6] = target: T1, MCH-2; assay: Dissociation constant Ki and irreversible rate constant k3 for irreversible inhibitors, Mch2; conditions: continuous assay 60 min, reaction initiated by adding enzyme
[7] = target: T2, CPP32; assay: Dissociation constant Ki and irreversible rate constant k3 for irreversible inhibitors, CPP32; conditions: continuous assay 60 min, reaction initiated by adding enzyme
[8] = target: T3, MCH-5; assay: Dissociation constant Ki and irreversible rate constant k3 for irreversible inhibitors, Mch5; conditions: continuous assay 60 min, reaction initiated by adding enzyme
[9] = target: T5, mICE; assay: Dissociation constant Ki and irreversible rate constant k3 for irreversible inhibitors, ICE; conditions: continuous assay 60 min, reaction initiated by adding enzyme
[10] = Ac-DEVD-AMC substrate, 30 min preincubation, room temperature, read-out: MCH-2 IC50
[11] = recombinant enzyme, Ac-DEVD-AMC substrate, 30 min preincubation, room temperature, read-out: CPP32 IC50
[12] = Ac-DEVD-AMC substrate, 30 min preincubation, room temperature, read-out: MCH-5 IC50
[13] = Ac-DEVD-AMC substrate, 30 min preincubation, room temperature, read-out: MCH-3 IC50
[14] = Table 3, method of Preparation 3A, read-out: CPP32 I50
[15] = Table 3, method of Preparation 3A, read-out: MCH5 I50
[16] = Table 3, method of Preparation 3A, read-out: MCH3 I50
[17] = Table 3, method of Preparation 3A, read-out: MCH2 I50

T3 sequence (Q14790 217-374 limits assumed, species assumed): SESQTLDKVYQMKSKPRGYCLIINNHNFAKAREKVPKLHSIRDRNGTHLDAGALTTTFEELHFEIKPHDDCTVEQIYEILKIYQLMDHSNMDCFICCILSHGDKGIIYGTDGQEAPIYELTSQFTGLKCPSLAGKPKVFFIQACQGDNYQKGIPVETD
T3 sequence (Q14790 385-479 limits assumed, species assumed): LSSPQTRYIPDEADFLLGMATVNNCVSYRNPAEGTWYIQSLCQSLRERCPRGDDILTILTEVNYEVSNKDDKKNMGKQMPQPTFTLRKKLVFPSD

Row | SMILES | Ki [6] [µM] | MCH-2 k3/Ki [6] | CPP32 k3/Ki [7] | Ki [7] [µM] | Ki [8] [µM] | MCH-5 k3/Ki [8] | Ki [9] [µM] | mICE k3/Ki [9] | other results
1 | CC(C)C[C@H](NC(=O)[C@@H](CCC(=O)O)Oc1cccc2ccccc12)C(=O)N[C@H](C=O)CC(=O)O [Example 4, (3S,2′R)-3-[N-((2′-(1-Naphthyloxy)-4′-Carboxy)Butyryl)Leucinyl]Amino-4-Oxobutanoic Acid] | – | – | – | – | – | – | – | – | IC50 [1, 10]: 0.0035 µM; IC50 [2, 11]: 0.0038 µM; IC50 [3, 12]: 0.031 µM; IC50 [4, 13]: 0.13 µM
2 | CC(C)C[C@H](NC(=O)COc1cccc2ccccc12)C(=O)N[C@H](C=O)CC(=O)O [Example 1, (3S)-3-[N-((1-Naphthyloxy)Acetyl)Leucinyl]Amino-4-Oxobutanoic Acid] | – | – | – | – | – | – | – | – | IC50 [1, 10]: 0.995 µM; IC50 [2, 11]: 0.141 µM; IC50 [3, 12]: 0.68 µM; IC50 [4, 13]: 1.56 µM; IC50 ([5]; recombinant enzyme, Ac-YVAD-AMC substrate, 30 min preincubation, room temperature, read-out: mICE IC50): 0.535 µM
3 | CC(C)C[C@H](NC(=O)CCc1ccccc1)C(=O)N[C@H](C=O)CC(=O)O [Example 35] (Hydrocinnamoyl-Leu-Asp-aldehyde) | – | – | – | – | – | – | – | – | IC50 [2, 14]: 9.74 µM; IC50 [3, 15]: > 10 µM; IC50 [4, 16]: > 10 µM; IC50 ([5]; Table 3, method of Preparation 3A, read-out: mICE I50): > 10 µM
4 | CC(C)C[C@H](NC(=O)C(C)Nc1cccc2ccccc12)C(=O)N[C@H](C=O)CC(=O)O (mixture of isomers) [Example 9, (3S,2′RS)-3-[N-(2′-(1-Naphthylamino)Propionyl)Leucinyl]Amino-4-Oxobutanoic Acid] | – | – | – | – | – | – | – | – | IC50 [1, 10]: 0.31 µM; IC50 [2, 11]: 0.512 µM; IC50 [3, 12]: 0.017 µM; IC50 [4, 13]: 7.24 µM
5 | CC(C)C[C@H](NC(=O)[C@H](CCC(=O)O)Oc1cccc2ccccc12)C(=O)N[C@H](C=O)CC(=O)O [Example 3, (3S,2′S)-3-[N-((2′-(1-Naphthyloxy)-4′-Carboxy)Butyryl)Leucinyl]Amino-4-Oxobutanoic Acid] | – | – | – | – | – | – | – | – | IC50 [1, 10]: 0.015 µM; IC50 [2, 11]: 0.021 µM; IC50 [3, 12]: 0.012 µM; IC50 [4, 13]: 0.587 µM
6 | C[C@H](NC(=O)COc1ccccc1-c1ccccc1)C(=O)NC(CC(=O)O)C(=O)COc1c(F)c(F)cc(F)c1F (some centres unmarked) [Example 177] | 0.047 | 21,100 M^−1s^−1 | 89,700 M^−1s^−1 | 0.086 | 0.439 | 4,370 M^−1s^−1 | 0.225 | 45,600 M^−1s^−1 | –
7 | CC(C)[C@H](NC(=O)COc1cccc2ccccc12)C(=O)N[C@@H](CC(=O)O)C(=O)COC(=O)c1c(Cl)cccc1Cl [Example 63] | 0.012 | 56,900 M^−1s^−1 | 725,000 M^−1s^−1 | 0.012 | 0.012 | 17,000 M^−1s^−1 | 0.079 | 52,100 M^−1s^−1 | –
8 | CC(C)[C@H](NC(=O)COc1cccc2ccccc12)C(=O)N[C@@H](CC(=O)O)C(=O)COc1cc(F)c(F)cc1F [Example 77] | 0.526 | 630 M⁻¹ s⁻¹ | 24,400 M^−1s^−1 | 0.123 | 1.5 | 670 M⁻¹ s⁻¹ | 0.262 | 11,500 M^−1s^−1 | –
9 | CC(C)[C@H](NC(=O)COc1cccc2ccccc12)C(=O)N[C@@H](CC(=O)O)C(=O)COc1c(F)c(F)cc(F)c1F [Example 79] | 0.006 | 78,900 M^−1s^−1 | 268,000 M^−1s^−1 | 0.042 | 0.034 | 30,200 M^−1s^−1 | 0.091 | 77,500 M^−1s^−1 | –
10 | CC(C)C[C@H](NC(=O)CCOc1cccc2ccccc12)C(=O)N[C@H](C=O)CC(=O)O [Example 22] | – | – | – | – | – | – | – | – | IC50 [1, 17]: 0.305 µM; IC50 [2, 14]: 0.059 µM; IC50 [3, 15]: 9.81 µM; IC50 [4, 16]: 1.37 µM
11 | CC(C)C[C@H](NC(=O)C(C)Oc1cccc2ccccc12)C(=O)N[C@H](C=O)CC(=O)O (some centres unmarked) [Example 14] | – | – | – | – | – | – | – | – | IC50 [1, 17]: 1.28 µM; IC50 [2, 14]: 0.376 µM; IC50 [3, 15]: 2.43 µM; IC50 [4, 16]: 1.32 µM
12 | COC(=O)c1cc(OCC(=O)[C@H](CC(=O)O)NC(=O)[C@@H](NC(=O)COc2cccc3ccccc23)C(C)C)no1 [Example 144] | 0.07 | 5,800 M^−1s^−1 | 144,000 M^−1s^−1 | 0.054 | 0.155 | 6,340 M^−1s^−1 | 0.126 | 42,500 M^−1s^−1 | –
13 | CC(C)[C@H](NC(=O)COc1cccc2ccccc12)C(=O)N[C@@H](CC(=O)O)C(=O)COP(=O)(c1ccccc1)c1ccccc1 [Example 103] | 0.038 | 39,700 M^−1s^−1 | 351,000 M^−1s^−1 | 0.038 | 0.025 | 59,300 M^−1s^−1 | 0.063 | 143,000 M^−1s^−1 | –
14 | CC(C)C[C@H](NC(=O)C(C)Oc1cccc2cc(Br)ccc12)C(=O)N[C@H](C=O)CC(=O)O (some centres unmarked) [Example 15] | – | – | – | – | – | – | – | – | IC50 [1, 17]: 13.8 µM; IC50 [2, 14]: 4.81 µM; IC50 [3, 15]: 29.1 µM; IC50 [4, 16]: 32.4 µM
15 | CC(NC(=O)C(NC(=O)OCc1ccccc1)C(C)C)C(=O)NC(CC(=O)O)C(=O)CF (stereo not drawn) [refer., Cbz-ValAlaAsp-CH2F, reference compound] (Cbz-Val-Ala-Asp-CH2F; configuration not given here) | 0.594 | 2,950 M^−1s^−1 | 12,200 M^−1s^−1 | 0.82 | 0.018 | 83,300 M^−1s^−1 | 0.015 | 214,000 M^−1s^−1 | –
